The subject of data set [1] is Plasma. The data set is described as follows: Metabolic stability in 50% human plasma assessed as half life at pH 7.4 by RP-HPLC. In kind it is ADME, cell-free.
The test system of data set [2] is Plasma. The data set is described as follows: Metabolic stability in 50% human plasma assessed as aspirin release at pH 7.4 by RP-HPLC. Note: time not given here. Format: ADME, cell-free.
Data set [3] deals with Plasma. The data set is described as follows: Metabolic stability in 10% human plasma assessed as aspirin release at pH 7.4 by RP-HPLC. Note: time not given here. In kind it is ADME, cell-free.
Data set [4] can be described thus: Metabolic stability in 10% human plasma assessed as half life at pH 7.4 by RP-HPLC.
Data set [5] deals with Plasma. In words: Metabolic stability in 50% human plasma assessed as half life at pH 7.4 by RP-HPLC in presence of cholinesterase-inhibitor eserine. Format: ADME, cell-free.
Data set [6] relates to Plasma. In words: Metabolic stability in 50% human plasma assessed as half life at pH 7.4 by RP-HPLC in presence of BuChE-inhibitor isoOMPA. In kind it is ADME, cell-free.
The nature of data set [7]: Metabolic stability in 50% human plasma assessed as half life at pH 7.4 by RP-HPLC.
Data set [8] concerns Plasma. The data set is described as follows: Metabolic stability in 50% human plasma assessed as aspirin release at pH 7.4 by RP-HPLC in presence of AChE-inhibitor PMSF. Format: ADME, cell-free.
In data set [9] the test system is Plasma. The data set is described as follows: Metabolic stability in 50% human plasma assessed as half life at pH 7.4 by RP-HPLC in presence of BuChE-inhibitor dibucaine. Format: ADME, cell-free.
The test system of data set [10] is Plasma. The data set is described as follows: Metabolic stability in 50% human plasma assessed as half life at pH 7.4 by RP-HPLC in presence of AChE-inhibitor PMSF. Format: ADME, cell-free.
Data set [11] has as its system Plasma. In words: Metabolic stability in 50% human plasma assessed as aspirin release at pH 7.4 by RP-HPLC in presence of BuChE-inhibitor dibucaine. In kind it is ADME, cell-free.

We go through two compounds from ChEMBL document CHEMBL1156105 (J Med Chem, 2009).

For orientation: half-life means the time needed for the level to fall by half in the phase considered. For the compound `CC(=O)Oc1ccccc1C(=O)O[C@H]1CO[C@H]2[C@@H]1OC[C@H]2OC(=O)c1cnoc1C`, the t1/2 in data set [1] is 0.06 min. The Activity in [2] is on record as 14%; in data set [3], 18%. Further, in data set [4], the half-life stood at 11.6 min.
Take `CC(=O)Oc1ccccc1C(=O)O[C@H]1CO[C@H]2[C@@H]1OC[C@H]2O[N+](=O)[O-]`: the t1/2 turned out to be 178 min in data set [5], 38.3 min in data set [6], 4.2 min in [9] and 2.9 min in [10]. In addition, the half-life in data set [7] is 0.188 min; in [4], 0.867 min. Besides, the Activity in [2] stood at 7.7%; in [8] it was 6.2%; in data set [3], 9.1%; in data set [11], 6.75%.
